Results reported in patent US7550495B2 (priority 2004, dated 2009).
In brackets after ≈: the same amount, converted by molar mass.

Key:
[1] = Assay condition for measuring solubility; format: physicochemical; details: for solubility at 24 h: thermodynamic from solid, aqueous, sodium phosphate buffer pH 7.4, 24 h, 25° C.
Description: A 30 mM DMSO stock is prepared of the sample and then a 25 μL aliquot is added to a 96-well plate and genevac at 40° C. for 4 hours. To the genevac compound add 250 μL of sodium phosphate buffer (pH 7.4) and then mix at 1200 rpm for 24 h using an Eppendorf Thermomixer at 25° C. After mixing solution is transferred to a 96-well Whatman GF/B filter plate and then filtered under vacuum. The supernatant is then injected onto the LC/MS for analysis and quantitation is performed using a 1-point calibration for the compound of interest.

[2] = Metabolic stability assay in human liver microsomes; format: in vitro ADME
Description: (§1) A solution of 500 μl of 100 μM compound in DMSO is incubated with human or rat liver microsomes (843 μl of microsomes of 0.5618 mg/mL in 30 ml 0.1 M KH2PO4 buffer pH7.4) at 37° C. for 10 min in a 96-deep well plate. NADPH (46 μL) at a concentration of 8.33 mg/ml in 100 mM KH2PO4 buffer pH 7.4 is added to start the reaction. The reaction mixtures are transferred to a 384-well plate containing acetonitrile to quench the reaction at time 0, 10, 20, 30 minutes. The 384 well plate is centrifuged for 30 min at 9000 g, at 4° C., from which samples are analyzed by LC/MS (model: XDB Eclipse C18). Three references are analyzed by LC/MS as a positive control. Data are processed following a standard procedure. The metabolic stability of assayed compounds is expressed as μL/min/mg

[3] = Metabolic stability assay in rat liver microsomes; format: in vitro ADME; details: pH 7.4, 37° C., read-out: rCLint
Description: as §1

Human CB1 receptor [4] = target: T1, Human CB1 receptor (Homo sapiens, UniProt P21554); assay: hCB1 receptor binding (3H-CP55,940 displacement); details: Ki=IC50/(1+[rad]/Kd)
T1 construct: purchased Receptor Biology
T1 sequence (P21554 whole entry): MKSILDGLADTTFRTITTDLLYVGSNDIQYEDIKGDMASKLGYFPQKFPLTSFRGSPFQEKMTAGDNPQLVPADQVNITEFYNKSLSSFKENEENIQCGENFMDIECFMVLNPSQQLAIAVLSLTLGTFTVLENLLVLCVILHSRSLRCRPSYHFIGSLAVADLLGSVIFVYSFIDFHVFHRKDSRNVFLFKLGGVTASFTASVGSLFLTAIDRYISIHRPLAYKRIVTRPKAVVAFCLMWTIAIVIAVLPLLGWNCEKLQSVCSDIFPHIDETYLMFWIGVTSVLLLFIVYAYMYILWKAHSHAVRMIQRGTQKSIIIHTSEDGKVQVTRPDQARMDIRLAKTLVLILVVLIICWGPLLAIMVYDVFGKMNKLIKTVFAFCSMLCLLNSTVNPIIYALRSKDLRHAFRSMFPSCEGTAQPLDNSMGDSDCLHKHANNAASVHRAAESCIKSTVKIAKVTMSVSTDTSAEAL
Description: Human CB1 receptor from Receptor Biology (hCB1) or human CB2 receptor from BioSignal (hCB2) membranes are thawed at 37° C., passed 3 times through a 25-gauge blunt-end needle, diluted in the cannabinoid binding buffer (50 mM Tris, 2.5 mM EDTA, 5 mM MgCl2, and 0.5 mg/mL BSA fatty acid free, pH 7.4) and aliquots containing the appropriate amount of protein are distributed in 96-well plates. The IC50 of the compounds of the invention at hCB1 and hCB2 are evaluated from 10-point dose-response curves done with ^3H-CP55,940 at 20000 to 25000 dpm per well (0.17-0.21 nM) in a final volume of 300 μl. The total and non-specific binding are determined in the absence and presence of 0.2 μM of HU210 respectively. The plates are vortexed and incubated for 60 minutes at room temperature, filtered through Unifilters GF/B (presoaked in 0.1% polyethyleneimine) with the Tomtec or Packard harvester using 3 mL of wash buffer (50 mM Tris, 5 mM MgCl2, 0.5 mg BSA pH 7.0). The filters are dried for 1 hour at 55° C. The radioactivity (cpm) is counted in a TopCount (Packard) after adding 65 μl/well of MS-20 scintillation liquid.
Based on the above assays, the dissociation constant (Ki) for a particular compound of the invention towards a particular receptor is determined using the following equation: Ki=IC50/(1+[rad]/Kd), […]

Human CB1 receptor [5] = target: T1, Human CB1 receptor; assay: hCB1 GTPγS binding; format: biochemical
Description: Human CB1 receptor from Receptor Biology (hCB1) or human CB2 receptor membranes (BioSignal) are thawed at 37° C., passed 3 times through a 25-gauge blunt-end needle and diluted in the GTPγS binding buffer (50 mM Hepes, 20 mM NaOH, 100 mM NaCl, 1 mM EDTA, 5 mM MgCl2, pH 7.4, 0.1% BSA). The EC50 and Emax of the compounds of the invention are evaluated from 10-point dose-response curves done in 300 μl with the appropriate amount of membrane protein and 100000-130000 dpm of GTPg^35S per well (0.11-0.14 nM). The basal and maximal stimulated binding is determined in absence and presence of 1 μM (hCB2) or 10 μM (hCB1) Win 55,212-2 respectively. The membranes are pre-incubated for 5 minutes with 56.25 μM (hCB2) or 112.5 μM (hCB1) GDP prior to distribution in plates (15 μM (hCB2) or 30 μM (hCB1) GDP final). The plates are vortexed and incubated for 60 minutes at room temperature, filtered on Unifilters GF/B (presoaked in water) with the Tomtec or Packard harvester using 3 ml of wash buffer (50 mM Tris, 5 mM MgCl2, 50 mM NaCl, pH 7.0). The filters are dried for 1 hour at 55° C. The radioactivity (cpm) is counted in a TopCount (Packard) after adding 65 μl/well of MS-20 scintillation liquid. […]

[6] = pH 7.4, 37° C., read-out: hCLint

SMILES | solubility at 24 h [1] [µM] | microsomal CLint at 1.6 µM [2, 6] [µL/min/mg] | microsomal CLint at 1.6 µM [3] [µL/min/mg] | other results
CCCS(=O)(=O)Nc1ccc2c(c1)nc(C(C)(C)C)n2CC1CCC(F)(F)CC1 | 3.79 (≈ 1.62 µg/mL) | 10.7 | 8.04 | 
CCS(=O)(=O)Nc1ccc2c(c1)nc(C(C)(C)C)n2CC1CCC(F)(F)CC1 | 7.36 (≈ 3.04 µg/mL) | 5.76 | 11.7 | 
CC(C)(C)c1nc2cc(NS(C)(=O)=O)ccc2n1CC1CCC(F)(F)CC1 | 4.3 (≈ 1.72 µg/mL) | 7.41 | 23.4 | 
CC(C)(C)c1nc2cc(NS(=O)(=O)C3CC3)ccc2n1CC1CCC(F)(F)CC1 | 5.93 (≈ 2.52 µg/mL) | 7.77 | 10.2 | 
CC(F)(F)c1nc2cc(NS(=O)(=O)C3CC3)ccc2n1CC1CCC(F)(F)CC1 | 51.9 (≈ 22.5 µg/mL) | 5.27 | < 4 | 
CCS(=O)(=O)Nc1ccc2c(c1)nc(C(C)(C)C)n2CC1CCC(F)CC1 (centres unmarked) | 353 (≈ 140 µg/mL) | 5.72 | 62.6 | 
CC(C)(C)c1nc2cc(NS(=O)(=O)C(C)(C)C)ccc2n1CC1CCC(F)(F)CC1 | 0.61 (≈ 0.269 µg/mL) | 8.03 | 15.4 | 
CC(F)(F)c1nc2cc(NS(=O)(=O)C(C)(C)C)ccc2n1CC1CCC(F)(F)CC1 | 0.51 (≈ 0.229 µg/mL) | < 4 | 6.87 | 
CC(C)(C)c1nc2cc(NS(=O)(=O)C3CC3)ccc2n1CC1CCC(F)CC1 (centres unmarked) | 233 (≈ 95 µg/mL) | < 4 |  | 
CC(C)(C)c1nc2cc(NS(=O)(=O)C(C)(C)C)ccc2n1CC1CCC(F)CC1 (centres unmarked) | 154 (≈ 65.3 µg/mL) | 11.5 |  | 
CCS(=O)(=O)Nc1ccc2c(c1)nc(C(C)(C)C)n2CC1CCC(F)CC1 (single isomer, unassigned) [Isomer A, N-{2-tert-Butyl-1-[(4-fluorocyclohexyl)methyl]-1H-benzimidazol-5-yl}ethanesulfonamide (isomers)] |  |  |  | Ki (Human CB1 receptor [4]): 148 nM; Sol. pH 7.4 ([1]; listed as A): 64 μM
CCS(=O)(=O)Nc1ccc2c(c1)nc(C(C)(C)C)n2CC1CCC(F)CC1 (single isomer, unassigned) [Isomer B, N-{2-tert-Butyl-1-[(4-fluorocyclohexyl)methyl]-1H-benzimidazol-5-yl}ethanesulfonamide (isomers)] |  |  |  | Ki (Human CB1 receptor [4]): 14.8 nM; Sol. pH 7.4 ([1]; listed as B): 381 μM; microsomal CLint at 1.6 µM ([2]; pH 7.4, read-out: hClint): 7.7 µL/min/mg; EC50 (Human CB1 receptor [5]): 4.9 nM; Emax (Human CB1 receptor [5]; maximal stimulation with 10 μM Win 55,212-2): 103%
